From patent US12036315B2, “Pharmaceutical composition for oral administration comprising enzalutamide” (Astellas Pharma Inc., priority 2017, dated 2024)
Values after ≈ are worked out from the molar mass of the structure shown.

Experiment: Solubility of enzalutamide in water
Format: physicochemical
Conditions: 20° C.±5° C.
Text: The term “to improve solubility” as used herein means that the solubility, the dissolved concentration, or the dissolved rate of enzalutamide in a solvent is increased.
It is possible to obtain good solubility and/or good dissolution properties by applying the technology of the present invention. Further, it is possible to obtain good oral absorbability by applying the technology of the present invention.

solubility: 2 µg/mL (≈ 4.31 µM)
Compound: CNC(=O)c1ccc(N2C(=S)N(c3ccc(C#N)c(C(F)(F)F)c3)C(=O)C2(C)C)cc1F [Enzalutamide, 4-{3-[4-cyano-3-(trifluoromethyl)phenyl]-5,5-dimethyl-4-oxo-2-sulfanylideneimidazolidin-1-yl}-2-fluoro-N-methylbenzamide]
